From patent US20220177508A1, “C10-Cyclic Substituted 13-Membered Macrolides and Uses Thereof” (Zikani Therapeutics, Inc., priority 2018, published 2022) come the findings set out here.

The structures appear in SMILES notation. ≈ marks a conversion by molar mass, not a printed value.

Holding throughout (format): cell-based
One assay deals with P. aeruginosa MP-3. Briefly: Broth dilution MIC determination (CLSI), P. aeruginosa MP-3. The note with it: Pseudomonas aeruginosa, MP3; strain MP-3, broth dilution.
A further assay concerns E. coli MP-4. Nature of the assay: Broth dilution MIC determination (CLSI), E. coli MP-4. The note with it: Escherichia coli, MP4; strain MP-4, broth dilution; read-out: MIC E. coli MP-4.
The subject of a further assay is K. pneumoniae MP-546. Nature of the assay: Broth dilution MIC determination (CLSI), K. pneumoniae MP-546. The note with it: Klebsiella pneumoniae, MP546; strain MP-546, broth dilution.
For a further assay, the system named is S. aureus MP-12. Nature of the assay: Broth dilution MIC determination (CLSI), S. aureus MP-12. The note with it: Staphylococcus aureus, MP12; strain MP-12, broth dilution.
A further assay has as its system A. baumannii MP-15. Briefly: Broth dilution MIC determination (CLSI), A. baumannii MP-15. The note with it: Acinetobacter baumannii, MP15; strain MP-15, broth dilution; read-out: MIC A. baumanii MP-15.

Take `C=CCN1CC=C([C@H]2[C@@H](C)OC(=O)C(C)(C)C(=O)[C@H](C)[C@@H](O[C@@H]3O[C@H](C)C[C@H](N(C)C)[C@H]3O)[C@](C)(OC)C[C@@H](C)CN2C)CC1` [Compound 1, (2R,3S,6R,8R,9R,10R)-3-(1-Allyl-1,2,3,6-tetrahydropyridin-4-yl)-9-(((2S,3R,4S,6R)-4-(dimethylamino)-3-hydroxy-6-methyltetrahydro-2H-pyran-2-yl)oxy)-8-methoxy-2,4,6,8,10,12,12-heptamethyl-1-oxa-4-azacyclotridecane-11,13-dione]: the MIC against P. aeruginosa MP-3, in the assay on E. coli MP-4, in the assay with K. pneumoniae MP-546, against S. aureus MP-12 and in the assay with A. baumannii MP-15 was greater than 32 µg/mL throughout.
For `CCC[N+]1(C)CC=C([C@H]2[C@@H](C)OC(=O)C(C)(C)C(=O)[C@H](C)[C@@H](O[C@@H]3O[C@H](C)C[C@H](N(C)C)[C@H]3O)[C@](C)(OC)C[C@@H](C)CN2C)CC1` (stereo partly drawn) [Compound 4, 4-((2R,3S,6R,8R,9R,10R)-9-(((2S,3R,4S,6R)-4-(dimethylamino)-3-hydroxy-6-methyltetrahydro-2H-pyran-2-yl)oxy)-8-methoxy-2,4,6,8,10,12,12-heptamethyl-11,13-dioxo-1-oxa-4-azacyclotridecan-3-yl)-1-methyl-1-propyl-1,2,3,6-tetrahydropyridin-1-ium], the MIC against P. aeruginosa MP-3, in the assay on E. coli MP-4, in the assay with K. pneumoniae MP-546, against S. aureus MP-12 and in the assay on A. baumannii MP-15 was greater than 32 µg/mL in each case.
With `CO[C@]1(C)C[C@@H](C)CN(C)[C@H](C2CC3CCC(C2)N3C(=O)CN(C)C)COC(=O)C(C)(C)C(=O)[C@H](C)[C@H]1O[C@@H]1O[C@H](C)C[C@H](N(C)C)[C@H]1O` (stereo partly drawn) [Compound 6, (3R,6R,8R,9R,10R)-9-(((2S,3R,4S,6R)-4-(dimethylamino)-3-hydroxy-6-methyltetrahydro-2H-pyran-2-yl)oxy)-3-(8-(dimethylglycyl)-8-azabicyclo[3.2.1]octan-3-yl)-8-methoxy-4,6,8,10,12,12-hexamethyl-1-oxa-4-azacyclotridecane-11,13-dione], the MIC in the assay with P. aeruginosa MP-3 was greater than 32 µg/mL; in the assay with E. coli MP-4 it was 4 to 32 µg/mL (≈ 5.76 to 46 µM); against K. pneumoniae MP-546, 4 to 32 µg/mL (≈ 5.76 to 46 µM); against S. aureus MP-12, greater than 32 µg/mL; in the assay with A. baumannii MP-15, greater than 32 µg/mL.
Take `CO[C@]1(C)C[C@@H](C)CN[C@H](C2CCN(C(C)C)CC2)COC(=O)C(C)(C)C(=O)[C@H](C)[C@H]1O[C@@H]1O[C@H](C)C[C@H](N(C)C)[C@H]1O` [Compound 7, (3R,6R,8R,9R,10R)-9-(((2S,3R,4S,6R)-4-(Dimethylamino)-3-hydroxy-6-methyltetrahydro-2H-pyran-2-yl)oxy)-3-(1-isopropylpiperidin-4-yl)-8-methoxy-6,8,10,12,12-pentamethyl-1-oxa-4-azacyclotridecane-11,13-dione]: the MIC was greater than 32 µg/mL against P. aeruginosa MP-3; less than 4 µg/mL with E. coli MP-4; less than 4 µg/mL in the assay with K. pneumoniae MP-546; 4 to 32 µg/mL (≈ 6.54 to 52.3 µM) against S. aureus MP-12; greater than 32 µg/mL in the assay with A. baumannii MP-15.
As to `CO[C@]1(C)C[C@@H](C)CN(C)[C@@H]([C@H]2CNC(=O)C2)COC(=O)C(C)(C)C(=O)[C@H](C)[C@H]1O[C@@H]1O[C@H](C)C[C@H](N(C)C)[C@H]1O` [Compound 8, (3S,6R,8R,9R,10R)-9-(((2S,3R,4S,6R)-4-(dimethylamino)-3-hydroxy-6-methyltetrahydro-2H-pyran-2-yl)oxy)-8-methoxy-4,6,8,10,12,12-hexamethyl-3-((R)-5-oxopyrrolidin-3-yl)-1-oxa-4-azacyclotridecane-11,13-dione], the MIC in the assay on P. aeruginosa MP-3 was greater than 32 µg/mL; with E. coli MP-4, less than 4 µg/mL; in the assay on K. pneumoniae MP-546, 4 to 32 µg/mL (≈ 6.85 to 54.8 µM); against S. aureus MP-12, greater than 32 µg/mL; with A. baumannii MP-15, greater than 32 µg/mL.
Take `CO[C@]1(C)C[C@@H](C)CN(C)[C@H](C2CCN(C(=O)CN3CCCC3)CC2)COC(=O)C(C)(C)C(=O)[C@H](C)[C@H]1O[C@@H]1O[C@H](C)C[C@H](N(C)C)[C@H]1O` [Compound 9, (3R,6R,8R,9R,10R)-9-(((2S,3R,4S,6R)-4-(dimethylamino)-3-hydroxy-6-methyltetrahydro-2H-pyran-2-yl)oxy)-8-methoxy-4,6,8,10,12,12-hexamethyl-3-(1-(2-(pyrrolidin-1-yl)acetyl)piperidin-4-yl)-1-oxa-4-azacyclotridecane-11,13-dione]: the MIC against P. aeruginosa MP-3 was greater than 32 µg/mL; in the assay with E. coli MP-4 it was 4 to 32 µg/mL (≈ 5.76 to 46 µM); in the assay on K. pneumoniae MP-546, 4 to 32 µg/mL (≈ 5.76 to 46 µM); in the assay on S. aureus MP-12, greater than 32 µg/mL; in the assay with A. baumannii MP-15, greater than 32 µg/mL.
Take `CO[C@]1(C)C[C@@H](C)CN(C)[C@H](C2CN(C(=O)CN3Cc4ccccc4C3)C2)COC(=O)C(C)(C)C(=O)[C@H](C)[C@H]1O[C@@H]1O[C@H](C)C[C@H](N(C)C)[C@H]1O` [Compound 10, (3R,6R,8R,9R,10R)-9-(((2S,3R,4S,6R)-4-(dimethylamino)-3-hydroxy-6-methyltetrahydro-2H-pyran-2-yl)oxy)-3-(1-(2-(isoindolin-2-yl)acetyl)azetidin-3-yl)-8-methoxy-4,6,8,10,12,12-hexamethyl-1-oxa-4-azacyclotridecane-11,13-dione]: the MIC with P. aeruginosa MP-3 is greater than 32 µg/mL; in the assay with E. coli MP-4, less than 4 µg/mL; in the assay with K. pneumoniae MP-546 it was 4 to 32 µg/mL (≈ 5.59 to 44.8 µM); against S. aureus MP-12, 4 to 32 µg/mL (≈ 5.59 to 44.8 µM); in the assay with A. baumannii MP-15 it was 4 to 32 µg/mL (≈ 5.59 to 44.8 µM).
Consider `CO[C@]1(C)C[C@@H](C)CN(C)[C@H]([C@H]2CCN(C(C)C)C2)COC(=O)C(C)(C)C(=O)[C@H](C)[C@H]1O[C@@H]1O[C@H](C)C[C@H](N(C)C)[C@H]1O` [Compound 11, (3R,6R,8R,9R,10R)-9-(((2S,3R,4S,6R)-4-(Dimethylamino)-3-hydroxy-6-methyltetrahydro-2H-pyran-2-yl)oxy)-3-((S)-1-isopropylpyrrolidin-3-yl)-8-methoxy-4,6,8,10,12,12-hexamethyl-1-oxa-4-azacyclotridecane-11,13-dione], for which the MIC with P. aeruginosa MP-3 is greater than 32 µg/mL; in the assay with E. coli MP-4, less than 4 µg/mL; in the assay on K. pneumoniae MP-546 it was less than 4 µg/mL; against S. aureus MP-12, 4 to 32 µg/mL (≈ 6.54 to 52.3 µM); in the assay on A. baumannii MP-15, greater than 32 µg/mL.
`CO[C@]1(C)C[C@@H](C)CN(C)[C@@H](C2CCN(CC(C)C)CC2)COC(=O)C(C)(C)C(=O)[C@H](C)[C@H]1O[C@@H]1O[C@H](C)C[C@H](N(C)C)[C@H]1O` [Compound 12, (3S,6R,8R,9R,10R)-9-(((2S,3R,4S,6R)-4-(dimethylamino)-3-hydroxy-6-methyltetrahydro-2H-pyran-2-yl)oxy)-3-(1-isobutylpiperidin-4-yl)-8-methoxy-4,6,8,10,12,12-hexamethyl-1-oxa-4-azacyclotridecane-11,13-dione]: the MIC was greater than 32 µg/mL in the assay with P. aeruginosa MP-3; less than 4 µg/mL in the assay on E. coli MP-4; less than 4 µg/mL in the assay with K. pneumoniae MP-546; 4 to 32 µg/mL (≈ 6.25 to 50 µM) against S. aureus MP-12; greater than 32 µg/mL in the assay with A. baumannii MP-15.
Take `CCC(=O)N1CCC([C@@H]2COC(=O)C(C)(C)C(=O)[C@H](C)[C@@H](O[C@@H]3O[C@H](C)C[C@H](N(C)C)[C@H]3O)[C@](C)(OC)C[C@@H](C)CN2C)CC1` [Compound 13, (3R,6R,8R,9R,10R)-9-(((2S,3R,4S,6R)-4-(dimethylamino)-3-hydroxy-6-methyltetrahydro-2H-pyran-2-yl)oxy)-8-methoxy-4,6,8,10,12,12-hexamethyl-3-(1-propionylpiperidin-4-yl)-1-oxa-4-azacyclotridecane-11,13-dione]: the MIC was greater than 32 µg/mL with P. aeruginosa MP-3; 4 to 32 µg/mL (≈ 6.25 to 50 µM) in the assay on E. coli MP-4; 4 to 32 µg/mL (≈ 6.25 to 50 µM) with K. pneumoniae MP-546; 4 to 32 µg/mL (≈ 6.25 to 50 µM) in the assay with S. aureus MP-12; greater than 32 µg/mL in the assay on A. baumannii MP-15.
For the molecule `CO[C@]1(C)C[C@@H](C)CN(C)[C@H](C2CN(C(=O)CN3CCC3)C2)COC(=O)C(C)(C)C(=O)[C@H](C)[C@H]1O[C@@H]1O[C@H](C)C[C@H](N(C)C)[C@H]1O` [Compound 14], the MIC in the assay with P. aeruginosa MP-3 was greater than 32 µg/mL; in the assay on E. coli MP-4 it was less than 4 µg/mL; in the assay with K. pneumoniae MP-546, greater than 32 µg/mL; in the assay on S. aureus MP-12, greater than 32 µg/mL; in the assay on A. baumannii MP-15, greater than 32 µg/mL.
`CCN1C2CCC1CC([C@@H]1COC(=O)C(C)(C)C(=O)[C@H](C)[C@@H](O[C@@H]3O[C@H](C)C[C@H](N(C)C)[C@H]3O)[C@](C)(OC)C[C@@H](C)CN1C)C2` (stereo partly drawn) [Compound 15, (3R,6R,8R,9R,10R)-9-(((2S,3R,4S,6R)-4-(dimethylamino)-3-hydroxy-6-methyltetrahydro-2H-pyran-2-yl)oxy)-3-(8-ethyl-8-azabicyclo[3.2.1]octan-3-yl)-8-methoxy-4,6,8,10,12,12-hexamethyl-1-oxa-4-azacyclotridecane-11,13-dione]: the MIC in the assay on P. aeruginosa MP-3 was greater than 32 µg/mL; with E. coli MP-4, less than 4 µg/mL; against K. pneumoniae MP-546 it was 4 to 32 µg/mL (≈ 6.27 to 50.2 µM); against S. aureus MP-12, 4 to 32 µg/mL (≈ 6.27 to 50.2 µM); in the assay on A. baumannii MP-15, greater than 32 µg/mL.
As for `CO[C@]1(C)C[C@@H](C)CN(C)[C@H](C2CN(CC3CCC3)C2)COC(=O)C(C)(C)C(=O)[C@H](C)[C@H]1O[C@@H]1O[C@H](C)C[C@H](N(C)C)[C@H]1O` [Compound 17, (3R,6R,8R,9R,10R)-3-(1-(cyclobutylmethyl)azetidin-3-yl)-9-(((2S,3R,4S,6R)-4-(dimethylamino)-3-hydroxy-6-methyltetrahydro-2H-pyran-2-yl)oxy)-8-methoxy-4,6,8,10,12,12-hexamethyl-1-oxa-4-azacyclotridecane-11,13-dione], the MIC in the assay with P. aeruginosa MP-3 was greater than 32 µg/mL; in the assay on E. coli MP-4 it was less than 4 µg/mL; with K. pneumoniae MP-546, less than 4 µg/mL; in the assay on S. aureus MP-12 it was 4 to 32 µg/mL (≈ 6.41 to 51.3 µM); with A. baumannii MP-15, 4 to 32 µg/mL (≈ 6.41 to 51.3 µM).
Regarding `CO[C@]1(C)C[C@@H](C)CN(C)[C@H](c2ccncc2)COC(=O)C(C)(C)C(=O)[C@H](C)[C@H]1O[C@@H]1O[C@H](C)C[C@H](N(C)C)[C@H]1O` [Compound 19, (3R,6R,8R,9R,10R)-9-(((2S,3R,4S,6R)-4-(dimethylamino)-3-hydroxy-6-methyltetrahydro-2H-pyran-2-yl)oxy)-8-methoxy-4,6,8,10,12,12-hexamethyl-3-(pyridin-4-yl)-1-oxa-4-azacyclotridecane-11,13-dione], the MIC in the assay with P. aeruginosa MP-3, with E. coli MP-4, against K. pneumoniae MP-546, in the assay on S. aureus MP-12 and with A. baumannii MP-15 was greater than 32 µg/mL throughout.
